Assay results published in patent US20250101023A1, “HETEROARYL DERIVATIVE AND USES THEREOF” (IUCF-HYU (INDUSTRY-UNIVERSITY COOPERATION FOUNDATION …, priority 2022, published 2025).

Tests used:
CDK12/CyclinK = CDK12/CyclinK (Homo sapiens (Human), UniProt Q9NYV4); experiment: CDK12/cyclinK enzyme activity; assay type: biochemical; settings: in vitro
SK-Br3 and HCC1954 cells = experiment: Combined treatment with trastuzumab; assay type: cell-based; settings: 40 nM Example 53 with trastuzumab titration, 72 hours
Source text: The effect of combined administration was investigated in SK-Br3 and HCC1954 cells.

[1] = system: 371 human wild-type kinases; experiment: Kinome-wide inhibitory activity profiling (panel summary); assay type: biochemical; settings: 10 μM; CDK1, 2, 3, 5, 7, 9, 17, 18 complexes, LKB1, EPHA3/4/5/6, EPHB2, DYRK1A/B, MAK, MYLK4, GSK3b, FES, CHK2, PAK5, ERK1
SK-Br3 xenograft = SK-Br3 xenograft model, anticancer efficacy; assay type: in vivo, mouse; settings: 10 mg/kg and 20 mg/kg, i.p. twice a week
Protocol: A mouse efficacy experiment was conducted after obtaining approval from the Laboratory Animal Ethics Committee of GenNBio (Review No.: GN-IACUC-Research 22-02-07). SK-Br3 and HCC-1954 cells (1×10^6 cells each) mixed with Matrigel (BD Biosciences) were […] injected into 5-week-old female Balb/c nude mice (Orient Bio, Seongnam, Republic of Korea). After tumors reached a size of about 100 mm^3, the compound, trastuzumab (20 mg/kg), and the like were intraperitoneally injected into mice (n=8 per group)(vehicle: 8% DMSO, 4% Tween-80, 88% PBS). The tumor size was measured twice weekly for about 4 weeks and calculated as follows. Volume (mm^3)=(a×b^2)/2; “a”, maximum diameter; “b”, vertical diameter

CDK9/cyclin K = CDK9/cyclin K (Homo sapiens (Human), UniProt P50750); experiment: Kinome-wide profiling; assay type: biochemical; settings: read-out: % Residual Activity (mean)
Sequence of CDK9/cyclin K (P50750 whole entry): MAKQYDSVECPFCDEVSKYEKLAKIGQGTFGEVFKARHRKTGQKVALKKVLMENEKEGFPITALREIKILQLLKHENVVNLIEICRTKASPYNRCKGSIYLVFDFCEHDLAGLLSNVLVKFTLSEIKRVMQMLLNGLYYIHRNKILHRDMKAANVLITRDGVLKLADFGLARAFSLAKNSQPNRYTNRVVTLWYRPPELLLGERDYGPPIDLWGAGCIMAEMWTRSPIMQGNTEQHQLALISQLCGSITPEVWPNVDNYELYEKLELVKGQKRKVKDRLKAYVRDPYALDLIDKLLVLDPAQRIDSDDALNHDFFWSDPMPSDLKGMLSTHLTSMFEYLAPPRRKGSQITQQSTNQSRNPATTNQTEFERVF
Sequence of CDK9/cyclin K (O75909 whole entry partner): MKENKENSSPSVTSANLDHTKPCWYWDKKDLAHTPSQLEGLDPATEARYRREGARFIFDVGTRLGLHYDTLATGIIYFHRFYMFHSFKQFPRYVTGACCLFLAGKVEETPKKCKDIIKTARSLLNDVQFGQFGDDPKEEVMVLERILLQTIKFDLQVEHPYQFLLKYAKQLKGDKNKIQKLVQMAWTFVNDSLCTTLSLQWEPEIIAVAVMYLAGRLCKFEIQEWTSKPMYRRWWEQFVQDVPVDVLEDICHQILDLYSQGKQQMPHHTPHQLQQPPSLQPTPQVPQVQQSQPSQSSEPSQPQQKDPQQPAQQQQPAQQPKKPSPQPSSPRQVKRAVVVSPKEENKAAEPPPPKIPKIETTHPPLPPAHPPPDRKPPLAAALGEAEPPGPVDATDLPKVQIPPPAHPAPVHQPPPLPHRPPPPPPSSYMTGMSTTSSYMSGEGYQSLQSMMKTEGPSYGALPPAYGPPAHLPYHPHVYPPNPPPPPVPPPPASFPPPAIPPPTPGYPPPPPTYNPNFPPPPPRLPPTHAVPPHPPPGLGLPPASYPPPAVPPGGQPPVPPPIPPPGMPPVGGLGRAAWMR

CDK3/cyclin E2 = CDK3/cyclin E2 (Homo sapiens (Human), UniProt Q00526); experiment: Kinome-wide profiling; assay type: biochemical; settings: read-out: % Residual Activity (mean)
MUSK = MUSK (Homo sapiens (Human), UniProt O15146); experiment: Kinome-wide profiling; assay type: biochemical; settings: read-out: % Residual Activity (mean)
Sequence of MUSK (O15146 24-869): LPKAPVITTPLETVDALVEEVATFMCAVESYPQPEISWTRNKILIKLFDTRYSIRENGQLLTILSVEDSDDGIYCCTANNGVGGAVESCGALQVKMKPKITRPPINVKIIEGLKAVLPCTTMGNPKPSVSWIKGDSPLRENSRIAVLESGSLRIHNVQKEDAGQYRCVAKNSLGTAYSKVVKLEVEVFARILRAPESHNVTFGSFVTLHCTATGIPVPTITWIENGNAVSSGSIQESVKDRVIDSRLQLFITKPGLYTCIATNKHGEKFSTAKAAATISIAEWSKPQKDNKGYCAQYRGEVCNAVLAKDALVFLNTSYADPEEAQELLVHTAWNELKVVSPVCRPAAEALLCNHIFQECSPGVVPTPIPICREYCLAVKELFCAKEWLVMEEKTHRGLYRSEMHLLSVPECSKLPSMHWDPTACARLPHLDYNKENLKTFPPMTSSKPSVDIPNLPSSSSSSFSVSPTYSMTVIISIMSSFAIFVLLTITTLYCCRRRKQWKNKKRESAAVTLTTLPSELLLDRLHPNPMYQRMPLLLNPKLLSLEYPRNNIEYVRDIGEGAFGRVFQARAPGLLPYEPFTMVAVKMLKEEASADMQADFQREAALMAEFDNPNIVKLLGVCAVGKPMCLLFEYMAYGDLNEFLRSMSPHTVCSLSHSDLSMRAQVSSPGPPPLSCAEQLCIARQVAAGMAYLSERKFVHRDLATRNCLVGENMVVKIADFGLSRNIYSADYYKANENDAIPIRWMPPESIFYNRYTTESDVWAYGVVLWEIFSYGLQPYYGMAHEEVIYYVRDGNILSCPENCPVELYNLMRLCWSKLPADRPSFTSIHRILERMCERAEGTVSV

CDK6/cyclin D1 = CDK6/cyclin D1 (Homo sapiens (Human), UniProt Q00534); experiment: Kinome-wide profiling; assay type: biochemical; settings: read-out: % Residual Activity (mean)
TRKA = TRKA (Homo sapiens (Human), UniProt P04629); experiment: Kinome-wide profiling; assay type: biochemical; settings: read-out: % Residual Activity (mean)
FGFR2 = FGFR2 (Homo sapiens (Human), UniProt P21802); experiment: Kinome-wide profiling; assay type: biochemical; settings: read-out: % Residual Activity (mean)
CAMK1a = CAMK1a (Homo sapiens (Human), UniProt Q14012); experiment: Kinome-wide profiling; assay type: biochemical; settings: read-out: % Residual Activity (mean)
PKCb2 = PKCb2 (Homo sapiens (Human), UniProt P05771); experiment: Kinome-wide profiling; assay type: biochemical; settings: read-out: % Residual Activity (mean)
Sequence of PKCb2 (P05771 other isoform, or with tags, fused parts or gaps): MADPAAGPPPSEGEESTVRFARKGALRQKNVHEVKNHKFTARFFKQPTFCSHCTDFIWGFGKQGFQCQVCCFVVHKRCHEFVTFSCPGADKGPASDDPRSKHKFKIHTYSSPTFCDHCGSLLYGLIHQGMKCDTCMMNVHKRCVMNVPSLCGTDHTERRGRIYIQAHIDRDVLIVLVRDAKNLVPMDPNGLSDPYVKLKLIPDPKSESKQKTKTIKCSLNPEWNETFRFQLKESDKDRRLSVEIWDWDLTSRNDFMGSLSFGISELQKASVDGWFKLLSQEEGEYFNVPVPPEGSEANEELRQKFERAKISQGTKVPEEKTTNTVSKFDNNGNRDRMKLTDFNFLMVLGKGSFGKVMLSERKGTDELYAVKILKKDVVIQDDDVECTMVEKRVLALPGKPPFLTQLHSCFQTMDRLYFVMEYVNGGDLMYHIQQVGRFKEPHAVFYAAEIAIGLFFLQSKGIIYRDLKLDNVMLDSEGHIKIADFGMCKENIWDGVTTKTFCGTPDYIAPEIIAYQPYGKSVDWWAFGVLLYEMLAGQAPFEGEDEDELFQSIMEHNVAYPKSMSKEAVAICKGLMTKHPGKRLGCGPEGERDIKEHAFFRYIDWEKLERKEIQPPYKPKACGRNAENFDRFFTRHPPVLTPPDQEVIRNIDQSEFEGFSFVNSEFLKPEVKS

JNK1 = JNK1 (Homo sapiens (Human), UniProt P45983); experiment: Kinome-wide profiling; assay type: biochemical; settings: read-out: % Residual Activity (mean)
GLK/MAP4K3 = GLK/MAP4K3 (Homo sapiens (Human), UniProt Q8IVH8); experiment: Kinome-wide profiling; assay type: biochemical; settings: read-out: % Residual Activity (mean)
Sequence of GLK/MAP4K3 (Q8IVH8 whole entry): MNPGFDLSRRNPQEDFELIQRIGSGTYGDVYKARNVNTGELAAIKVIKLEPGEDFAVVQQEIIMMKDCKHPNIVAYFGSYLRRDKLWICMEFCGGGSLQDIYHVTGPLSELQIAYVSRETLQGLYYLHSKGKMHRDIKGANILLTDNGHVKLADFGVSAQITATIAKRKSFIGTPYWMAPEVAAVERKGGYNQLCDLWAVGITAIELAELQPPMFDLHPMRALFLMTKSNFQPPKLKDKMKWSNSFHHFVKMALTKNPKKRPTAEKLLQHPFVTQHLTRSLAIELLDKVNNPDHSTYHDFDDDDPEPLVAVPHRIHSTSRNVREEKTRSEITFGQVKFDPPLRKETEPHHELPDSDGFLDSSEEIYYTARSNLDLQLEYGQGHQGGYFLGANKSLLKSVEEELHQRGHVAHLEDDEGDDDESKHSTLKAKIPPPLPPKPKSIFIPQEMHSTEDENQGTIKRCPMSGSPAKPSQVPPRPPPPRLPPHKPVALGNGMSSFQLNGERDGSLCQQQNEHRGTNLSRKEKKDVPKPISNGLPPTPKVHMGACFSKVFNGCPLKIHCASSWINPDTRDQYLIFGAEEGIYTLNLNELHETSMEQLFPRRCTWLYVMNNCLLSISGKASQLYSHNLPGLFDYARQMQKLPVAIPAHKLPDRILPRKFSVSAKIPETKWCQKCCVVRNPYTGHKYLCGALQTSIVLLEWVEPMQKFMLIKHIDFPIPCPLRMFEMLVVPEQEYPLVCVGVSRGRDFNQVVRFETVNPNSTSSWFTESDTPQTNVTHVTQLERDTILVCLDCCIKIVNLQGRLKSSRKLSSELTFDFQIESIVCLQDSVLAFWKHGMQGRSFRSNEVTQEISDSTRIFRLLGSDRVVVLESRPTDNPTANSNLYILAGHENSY

MLCK/MYLK = MLCK/MYLK (Homo sapiens (Human), UniProt Q15746); experiment: Kinome-wide profiling; assay type: biochemical; settings: read-out: % Residual Activity (mean)
RIPK2 = RIPK2 (Homo sapiens (Human), UniProt O43353); experiment: Kinome-wide profiling; assay type: biochemical; settings: read-out: % Residual Activity (mean)
BLK = BLK (Homo sapiens (Human), UniProt P51451); experiment: Kinome-wide profiling; assay type: biochemical; settings: read-out: % Residual Activity (mean)
ULK1 = ULK1 (Homo sapiens (Human), UniProt O75385); experiment: Kinome-wide profiling; assay type: biochemical; settings: read-out: % Residual Activity (mean)
NIM1 = NIM1 (Homo sapiens (Human), UniProt Q8IY84); experiment: Kinome-wide profiling; assay type: biochemical; settings: read-out: % Residual Activity (mean)
GRK1 = GRK1 (Homo sapiens (Human), UniProt Q15835); experiment: Kinome-wide profiling; assay type: biochemical; settings: read-out: % Residual Activity (mean)
PKCtheta = PKCtheta (Homo sapiens (Human), UniProt Q04759); experiment: Kinome-wide profiling; assay type: biochemical; settings: read-out: % Residual Activity (mean)
MSK1/RPS6KA5 = MSK1/RPS6KA5 (Homo sapiens (Human), UniProt O75582); experiment: Kinome-wide profiling; assay type: biochemical; settings: read-out: % Residual Activity (mean)
HIPK2 = HIPK2 (Homo sapiens (Human), UniProt Q9H2X6); experiment: Kinome-wide profiling; assay type: biochemical; settings: read-out: % Residual Activity (mean)
MSSK1/STK23 = MSSK1/STK23 (Homo sapiens (Human), UniProt Q9UPE1); experiment: Kinome-wide profiling; assay type: biochemical; settings: read-out: % Residual Activity (mean)
PKN2/PRK2 = PKN2/PRK2 (Homo sapiens (Human), UniProt Q16513); experiment: Kinome-wide profiling; assay type: biochemical; settings: read-out: % Residual Activity (mean)
PKCeta = PKCeta (Homo sapiens (Human), UniProt P24723); experiment: Kinome-wide profiling; assay type: biochemical; settings: read-out: % Residual Activity (mean)
TYK2 = TYK2 (Homo sapiens (Human), UniProt P29597); experiment: Kinome-wide profiling; assay type: biochemical; settings: read-out: % Residual Activity (mean)
ROCK2 = ROCK2 (Homo sapiens (Human), UniProt O75116); experiment: Kinome-wide profiling; assay type: biochemical; settings: read-out: % Residual Activity (mean)
NEK1 = NEK1 (Homo sapiens (Human), UniProt Q96PY6); experiment: Kinome-wide profiling; assay type: biochemical; settings: read-out: % Residual Activity (mean)
SBK1 = SBK1 (Homo sapiens (Human), UniProt Q52WX2); experiment: Kinome-wide profiling; assay type: biochemical; settings: read-out: % Residual Activity (mean)
YSK4/MAP3K19 = YSK4/MAP3K19 (Homo sapiens (Human), UniProt Q56UN5); experiment: Kinome-wide profiling; assay type: biochemical; settings: read-out: % Residual Activity (mean)
Sequence of YSK4/MAP3K19 (Q56UN5 whole entry): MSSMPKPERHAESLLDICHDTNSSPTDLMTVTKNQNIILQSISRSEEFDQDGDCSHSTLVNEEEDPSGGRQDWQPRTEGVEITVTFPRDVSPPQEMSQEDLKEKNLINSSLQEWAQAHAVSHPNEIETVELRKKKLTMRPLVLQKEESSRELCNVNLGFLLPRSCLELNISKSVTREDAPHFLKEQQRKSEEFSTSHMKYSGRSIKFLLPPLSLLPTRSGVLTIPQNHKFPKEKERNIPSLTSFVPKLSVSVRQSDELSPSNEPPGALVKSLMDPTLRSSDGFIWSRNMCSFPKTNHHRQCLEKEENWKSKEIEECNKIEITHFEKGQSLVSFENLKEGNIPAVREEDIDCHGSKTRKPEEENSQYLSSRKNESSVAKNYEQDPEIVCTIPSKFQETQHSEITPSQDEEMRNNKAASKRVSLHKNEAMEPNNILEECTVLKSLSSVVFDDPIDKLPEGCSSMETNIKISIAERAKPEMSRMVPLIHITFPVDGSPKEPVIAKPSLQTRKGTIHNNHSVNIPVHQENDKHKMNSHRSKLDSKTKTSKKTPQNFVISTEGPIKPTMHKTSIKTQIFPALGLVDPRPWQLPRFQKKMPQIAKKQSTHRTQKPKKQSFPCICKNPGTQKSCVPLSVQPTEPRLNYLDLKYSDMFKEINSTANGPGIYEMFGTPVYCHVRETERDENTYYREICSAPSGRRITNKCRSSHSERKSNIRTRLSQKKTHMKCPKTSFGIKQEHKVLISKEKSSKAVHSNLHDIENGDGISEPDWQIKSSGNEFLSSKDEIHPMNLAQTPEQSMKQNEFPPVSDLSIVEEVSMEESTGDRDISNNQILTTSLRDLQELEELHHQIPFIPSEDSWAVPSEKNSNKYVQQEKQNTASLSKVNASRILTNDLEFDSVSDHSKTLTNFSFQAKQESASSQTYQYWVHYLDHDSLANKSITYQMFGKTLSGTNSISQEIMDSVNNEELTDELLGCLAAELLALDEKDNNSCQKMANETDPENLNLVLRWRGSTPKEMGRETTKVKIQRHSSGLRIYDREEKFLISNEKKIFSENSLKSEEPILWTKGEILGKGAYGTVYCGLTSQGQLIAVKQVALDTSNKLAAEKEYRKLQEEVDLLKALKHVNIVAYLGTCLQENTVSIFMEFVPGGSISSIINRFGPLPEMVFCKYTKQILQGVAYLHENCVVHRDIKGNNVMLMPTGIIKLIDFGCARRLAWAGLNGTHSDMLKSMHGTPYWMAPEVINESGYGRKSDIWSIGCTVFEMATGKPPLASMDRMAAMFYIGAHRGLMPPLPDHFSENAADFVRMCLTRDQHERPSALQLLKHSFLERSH

CDC7/DBF4 = CDC7/DBF4 (Homo sapiens (Human), UniProt O00311); experiment: Kinome-wide profiling; assay type: biochemical; settings: read-out: % Residual Activity (mean)
MEK2 = MEK2 (Homo sapiens (Human), UniProt P36507); experiment: Kinome-wide profiling; assay type: biochemical; settings: read-out: % Residual Activity (mean)

CCn1cnc2c(NCc3ccc(-c4ccccn4)nc3)nc(-c3ccc(N)nc3)nc21 [Example 53, N-([2,2′-bipyridin]-5-ylmethyl)-2-(6-aminopyridin-3-yl)-9-ethyl-9H-purin-6-amine] was tested, and the IC50 (CDK12/CyclinK) was 0.03 µM, the “anti-proliferative activity of trastuzumab on co-treatment” value (SK-Br3 and HCC1954 cells) was “slightly enhanced” and the “anti-proliferative activity of trastuzumab on co-treatment” value (SK-Br3 and HCC1954 cells; listed as Compound 53) was “slightly increased”. For the same compound, the kinase inhibition [1] was no less than 90%, the anticancer efficacy (SK-Br3 xenograft) was “anticancer efficacy in a dose-dependent manner” and the remaining activity at 10 µM (CDK9/cyclin K) was 1.07%. For the same compound, the remaining activity at 10 µM (CDK3/cyclin E2) was 2.63%, the remaining activity at 10 µM (MUSK) was 10.2% and the remaining activity at 10 µM (CDK6/cyclin D1) was 24.2%. The remaining activity at 10 µM (TRKA) was 28.7%, the remaining activity at 10 µM (FGFR2) was 33.7% and the remaining activity at 10 µM (CAMK1a) was 34%. For the same compound, the remaining activity at 10 µM (PKCb2) was 39.6%, the remaining activity at 10 µM (JNK1) was 41.6% and the remaining activity at 10 µM (GLK/MAP4K3) was 49.6%. For the same compound, the remaining activity at 10 µM (MLCK/MYLK) was 63.4%, the remaining activity at 10 µM (RIPK2) was 66.1% and the remaining activity at 10 µM (BLK) was 66.8%. For the same compound, the remaining activity at 10 µM (ULK1) was 70.3%, the remaining activity at 10 µM (NIM1) was 76% and the remaining activity at 10 µM (GRK1) was 76.3%. It also gave a remaining activity at 10 µM (PKCtheta) of 79.8%, a remaining activity at 10 µM (MSK1/RPS6KA5) of 80.5% and a remaining activity at 10 µM (HIPK2) of 81.3%. It also gave a remaining activity at 10 µM (MSSK1/STK23) of 82.8%, a remaining activity at 10 µM (PKN2/PRK2) of 85.8% and a remaining activity at 10 µM (PKCeta) of 87.9%. The remaining activity at 10 µM (TYK2) was 90.7%, the remaining activity at 10 µM (ROCK2) was 92.2% and the remaining activity at 10 µM (NEK1) was 92.3%. The remaining activity at 10 µM (SBK1) was 94.5%, the remaining activity at 10 µM (YSK4/MAP3K19) was 96.8% and the remaining activity at 10 µM (CDC7/DBF4) was 98.2%. For the same compound, the remaining activity at 10 µM (MEK2) was 176%.
